In patent publication US10456553B2, “Device and methods for targeted tissue drug delivery” (NATIVE CARDIO, INC., priority 2012, dated 2019):

What was measured:
[1] = system: atria; assay: Atrial electrophysiology (right atrial ERP) and atrial fibrillation induction after pericardial or intravenous procainamide; format: in vivo; conditions: swine
Protocol: (§1) Studies were conducted to determine the differences between intrapericardial (IPC) drug delivery versus intravenous (IV) drug delivery of the antiarrhythmic drug procainamide. In one study, using two groups of swine, investigators administered procainamide intravenously (n=6) or […] (n=7) using sequential intravenous doses of 2, 8, 16 mg/kg (cumulative was 2, 10, 26 mg/kg) or sequential pericardial doses of 0.5, 1, and 2 mg/kg (cumulative was 0.5, 1.5, 3.5 mg/kg). Each dose was re-suspended in 10 ml and administered at a rate of 1 mL/min. The pharmacokinetics of the two drug delivery methods was statistically significant. Pericardial delivery produced peak drug concentrations within the range of 250 to 900 ug/ml while the measurable level for plasma concentration was low (<1 ug/mL). […] It should be noted that the pericardial fluid concentration during intravenous delivery was 100 times less than that of intrapericardial delivery. The atrial electrophysiologic values were similar between both sets of delivery methods, indicating a lower direct dose can achieve similar therapeutic responses. The 3.5 mg/kg cumulative pericardial dose increased right atrial ERP by 22% from the baseline, while the 10 and 26 mg/kg cumulative intravenous doses prolonged atrial ERP by 24% and 18%, respectively. In addition, the cumulative doses of 3.5 mg/kg (pericardial) and 26 mg/kg (intravenous) prevented atrial fibrillation induction in 71% and 83% of the animals, respectively.

[2] = design: species or system swine; conditions: in vivo
Protocol: as §1, with “In addition, the cumulative doses of 3.5 mg/kg (pericardial) and 26 mg/kg (intravenous) prevented atrial fibrillation induction in 71% and 83% of the animals, respectively.” left out

[3] = system: ventricular electrophysiology; assay: Ventricular electrophysiology, heart rate and systemic blood pressure after pericardial or intravenous procainamide; format: in vivo; conditions: swine
Protocol: as §1

For `CCN(CC)CCNC(=O)c1ccc(N)cc1` [procainamide], which “animals in which atrial fibrillation induction was prevented” value ([1]; 3.5 mg/kg cumulative dose, pericardial) is on record?
The value was 71%.

And the “increase of right atrial ERP from the baseline” value ([1]; 3.5 mg/kg cumulative pericardial dose)?
The value was 22%.

What about the “prolongation of atrial ERP” value ([1]; 10 mg/kg cumulative intravenous dose) of the same molecule?
Its value is 24%.

And the “animals in which atrial fibrillation induction was prevented” value ([1]; 26 mg/kg cumulative dose, intravenous)?
Its value is 83%.

And the “prolongation of atrial ERP” value ([1]; 26 mg/kg cumulative intravenous dose)?
The value was 18%.

What about the “concentrations within the pericardial fluid” value ([2]; iv) of the same molecule?
The value was “equal to that of the plasma concentration”.

And the “pericardial fluid concentration during intravenous delivery relative to intrapericardial delivery” value ([2]; swine)?
Its value is 100 times less.

And the “atrial ventricular conduction times” value ([3]; 26 mg/kg intravenous dose)?
Its value is “prolonged”.

What about the “interventricular conduction (RV and LV activation)” value ([3]; 26 mg/kg intravenous dose) of the same molecule?
The value was “reduced”.

And the “effects on ventricular electrophysiology, heart rate, or systemic blood pressure” value ([3]; pericardial delivery)?
The value was “no significant effects”.
